Data: patent US20120046364A1, “Novel Sulfonic Acid-Containing Thyromimetics, and Methods for Their Use” (METABASIS THERAPEUTICS, INC., priority 2009, published 2012)

Tests used:
[1] = molecular target: T1, human thyroid hormone receptor TRβ (TRβ1) (Homo sapiens, UniProt P10828); experiment: Receptor binding, TRβ (125I-T3 displacement / SPA); details: for Ratio: TRα Kd / TRβ Kd
T1 construct: made in house; host or cells: Sf9 insect cells (baculovirus), crude lysate
T1 sequence (P10828 1-461): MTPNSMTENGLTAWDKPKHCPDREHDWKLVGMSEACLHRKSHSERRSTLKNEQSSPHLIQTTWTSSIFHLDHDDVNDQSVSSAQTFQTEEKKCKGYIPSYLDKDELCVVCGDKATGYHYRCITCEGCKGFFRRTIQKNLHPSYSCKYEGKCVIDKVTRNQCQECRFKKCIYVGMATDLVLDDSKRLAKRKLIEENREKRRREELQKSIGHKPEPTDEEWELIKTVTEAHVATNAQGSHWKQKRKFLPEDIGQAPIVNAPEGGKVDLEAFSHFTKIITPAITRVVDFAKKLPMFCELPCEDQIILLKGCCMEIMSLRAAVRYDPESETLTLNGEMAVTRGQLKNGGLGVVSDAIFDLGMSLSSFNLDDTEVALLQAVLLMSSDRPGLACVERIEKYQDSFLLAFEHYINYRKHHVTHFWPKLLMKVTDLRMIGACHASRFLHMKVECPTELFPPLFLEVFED
T1 sequence (P19793 1-462 partner): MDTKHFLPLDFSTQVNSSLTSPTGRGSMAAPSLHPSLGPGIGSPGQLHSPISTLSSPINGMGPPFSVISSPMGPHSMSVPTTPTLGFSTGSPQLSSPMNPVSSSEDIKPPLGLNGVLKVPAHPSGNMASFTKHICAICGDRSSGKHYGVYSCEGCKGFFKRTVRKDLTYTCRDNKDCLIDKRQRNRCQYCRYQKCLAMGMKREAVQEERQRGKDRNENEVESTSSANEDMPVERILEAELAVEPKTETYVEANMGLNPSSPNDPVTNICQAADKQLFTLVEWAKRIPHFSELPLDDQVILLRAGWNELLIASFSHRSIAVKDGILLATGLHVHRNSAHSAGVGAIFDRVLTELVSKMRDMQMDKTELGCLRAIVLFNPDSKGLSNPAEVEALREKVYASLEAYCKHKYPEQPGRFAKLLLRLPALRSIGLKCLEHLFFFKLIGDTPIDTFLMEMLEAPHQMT
Method: (§1) Methods: Baculoviruses expressing TRα1, TRβ1 and RXRα are generated using cDNA and other reagents from Invitrogen (Carlsbad, Calif.). To produce TR/RXR heterodimer proteins, the sf9 insect cells are first grown to a density of 15×10^5 cells/mL. TRα1 or TRβ1 and RXRα baculovirus stocks are added to the cell culture with a ratio of 1 to 1 (multiplicity of infection=10). The cells are harvested three days after the infection. […] The bound ^125I-T3 is counted with a scintillation counter.
(§2) Binding of compounds to either the TRα1 or TRβ1 are also performed by means of scintillation proximity assays (SPA). The SPA assay, a common method used for the quantitation of receptor-ligand equilibria, makes use of special beads coated with a scintillant and a capture molecule, copper, which binds to the histidine-tagged α or β receptor.

[2] = molecular target: T2, human thyroid hormone receptor TRα (TRα1) (Homo sapiens, UniProt P10827); experiment: Receptor binding, TRα (125I-T3 displacement / SPA)
T2 construct: made in house; host or cells: Sf9 insect cells (baculovirus), crude lysate
T2 sequence (P10827 1-410 isoform P10827-2): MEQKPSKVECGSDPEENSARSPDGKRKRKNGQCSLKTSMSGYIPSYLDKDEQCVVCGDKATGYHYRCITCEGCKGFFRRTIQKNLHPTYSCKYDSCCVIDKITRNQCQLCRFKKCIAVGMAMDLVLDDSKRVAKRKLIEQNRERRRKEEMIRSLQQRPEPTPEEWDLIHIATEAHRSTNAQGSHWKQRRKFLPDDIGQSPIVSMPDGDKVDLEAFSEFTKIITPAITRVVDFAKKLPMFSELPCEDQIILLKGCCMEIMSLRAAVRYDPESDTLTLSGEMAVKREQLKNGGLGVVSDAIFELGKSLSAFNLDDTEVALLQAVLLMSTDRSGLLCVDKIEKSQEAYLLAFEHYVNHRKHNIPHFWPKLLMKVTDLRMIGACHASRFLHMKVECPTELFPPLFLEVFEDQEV
T2 sequence (P19793 1-462 partner): T1 sequence (P19793 1-462 partner)
Method: as §1, §2

[3] = PO 24 Hr. CF TPC decrease; assay type: in vivo; details: dose 0.2 mg/kg
Text: Administering sulfonic acid-containing compounds that bind to a TR to animals can result in changes in lipids, including hepatic and/or plasma cholesterol levels; changes in lipoprotein levels including LDL-cholesterol, lipoprotein a (Lp(a)); changes in hepatic glycogen levels; and changes in energy expenditure as measured by changes in oxygen consumption and in some cases animal weight. For example, the effect on cholesterol may be determined using cholesterol fed animals such as normal rats and hamsters, or TRα^−/− knockout mice. Cholesterol may be measured using standard tests. Hepatic glycogen levels may be determined from livers isolated from treated animals. Changes in energy expenditure may be monitored by measuring changes in oxygen consumption (MVO2). Varieties of methods are well described in the literature and include measurement in the whole animal using Oxymax chambers (U.S. Pat. No. 6,441,015). Livers from treated rats can also be evaluated (Fernandez et al., Toxicol. Lett. 69(2):205-10 (1993)) as well as isolated mitochondria from liver (Carreras et al., Am. J. Physiol. Heart Circ. Physiol. 281(6):H2282-8 (2001)). Hepatocytes from treated rats can also be evaluated (Ismail-Beigi F et al., J Gen Physiol. 73(3):369-83 (1979)).

Compound	Kd [1] [nM]	Ratio [1]	Kd [2] [nM]	PO 24 Hr. CF TPC Dec (d % of Cont) [3]
3,5-dimethyl-4-(4′-hydroxy-3′-iso-propylbenzyl)phenyl-methanesulfonic acid [Compound 2]	0.4	2.8	1.1	−42 d % of Cont
Cc1cc(CS(=O)(=O)O)cc(C)c1Cc1ccc(O)c(C(C)C)c1 [Compound 1]	0.7	17.1	12	−45 d % of Cont
